Results published in the kinase profiling compilation of Christmann-Franck et al. (2016).

How the values were obtained:
Experiment in all cases: KINOMEscan competition binding
Settings in all cases: compound 10.0 µM
[1] = target: BMPR1A (human) (UniProt P36894)
[2] = target: AKT1 (human) (UniProt P31749)
[3] = target: CAMK2B (human) (UniProt Q13554)
[4] = target: PRKCE (human) (UniProt Q02156)
[5] = target: FGFR3 (human) (UniProt P22607)
[6] = target: MAP3K10 (human) (UniProt Q02779)
[7] = target: NEK2 (human) (UniProt P51955)
[8] = target: MAPK10 (human) (UniProt P53779)
[9] = target: CHEK2 (human) (UniProt O96017)
[10] = target: PLK1 (human) (UniProt P53350)
PLK1 (human), sequence (P53350 whole entry, looked up): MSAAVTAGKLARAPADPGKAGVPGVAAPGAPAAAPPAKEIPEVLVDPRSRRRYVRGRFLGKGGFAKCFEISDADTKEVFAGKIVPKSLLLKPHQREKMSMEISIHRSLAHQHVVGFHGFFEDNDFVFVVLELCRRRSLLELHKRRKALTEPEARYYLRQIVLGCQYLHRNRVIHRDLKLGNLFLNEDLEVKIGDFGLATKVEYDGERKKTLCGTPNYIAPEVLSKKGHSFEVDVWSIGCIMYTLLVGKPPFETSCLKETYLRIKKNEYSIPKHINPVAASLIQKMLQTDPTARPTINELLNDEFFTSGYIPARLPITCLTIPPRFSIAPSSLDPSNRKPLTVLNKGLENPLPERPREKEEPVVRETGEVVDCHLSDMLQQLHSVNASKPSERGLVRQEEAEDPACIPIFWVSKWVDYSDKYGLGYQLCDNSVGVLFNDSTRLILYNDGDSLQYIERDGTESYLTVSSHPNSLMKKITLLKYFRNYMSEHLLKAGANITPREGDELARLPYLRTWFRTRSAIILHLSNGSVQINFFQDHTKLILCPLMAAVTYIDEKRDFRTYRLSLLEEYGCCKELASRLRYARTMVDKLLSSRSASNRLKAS

[11] = target: MAP4K2 (human) (UniProt Q12851)
[12] = target: ABL2 (human) (UniProt P42684)
[13] = target: PRKAA2 (human) (UniProt P54646)
PRKAA2 (human), sequence (P54646 whole entry, looked up): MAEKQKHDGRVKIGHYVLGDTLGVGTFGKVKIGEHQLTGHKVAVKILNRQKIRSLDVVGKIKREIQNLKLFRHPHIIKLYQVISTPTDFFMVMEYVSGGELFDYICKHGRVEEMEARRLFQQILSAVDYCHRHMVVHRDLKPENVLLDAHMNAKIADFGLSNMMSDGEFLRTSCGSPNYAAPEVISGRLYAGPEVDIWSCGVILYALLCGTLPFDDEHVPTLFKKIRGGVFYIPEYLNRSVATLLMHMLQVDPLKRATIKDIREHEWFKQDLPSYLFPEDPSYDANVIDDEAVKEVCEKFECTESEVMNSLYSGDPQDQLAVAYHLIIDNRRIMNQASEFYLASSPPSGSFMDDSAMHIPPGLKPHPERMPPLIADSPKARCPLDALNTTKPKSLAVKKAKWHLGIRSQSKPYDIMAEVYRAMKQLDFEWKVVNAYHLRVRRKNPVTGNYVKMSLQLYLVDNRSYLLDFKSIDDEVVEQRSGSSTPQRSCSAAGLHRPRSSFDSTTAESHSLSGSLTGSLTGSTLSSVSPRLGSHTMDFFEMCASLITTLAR

[14] = target: MAP3K3 (human) (UniProt Q99759)
[15] = target: DYRK1B (human) (UniProt Q9Y463)
[16] = target: CLK4 (human) (UniProt Q9HAZ1)
CLK4 (human), sequence (Q9HAZ1 whole entry, looked up): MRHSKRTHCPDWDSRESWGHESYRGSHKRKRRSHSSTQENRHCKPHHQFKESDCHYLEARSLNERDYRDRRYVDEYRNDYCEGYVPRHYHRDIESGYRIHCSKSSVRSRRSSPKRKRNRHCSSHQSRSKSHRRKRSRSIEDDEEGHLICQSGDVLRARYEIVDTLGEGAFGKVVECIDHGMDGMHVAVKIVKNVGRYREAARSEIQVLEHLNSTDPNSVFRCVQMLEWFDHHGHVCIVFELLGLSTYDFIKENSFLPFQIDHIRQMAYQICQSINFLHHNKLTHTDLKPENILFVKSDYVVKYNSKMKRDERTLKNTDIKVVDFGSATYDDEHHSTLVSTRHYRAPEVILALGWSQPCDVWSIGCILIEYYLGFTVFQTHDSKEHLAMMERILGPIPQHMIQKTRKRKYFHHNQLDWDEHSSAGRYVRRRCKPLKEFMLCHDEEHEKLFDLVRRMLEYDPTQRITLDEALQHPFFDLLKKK

[17] = target: FGFR2 (human) (UniProt P21802)
FGFR2 (human), sequence (P21802 whole entry, looked up): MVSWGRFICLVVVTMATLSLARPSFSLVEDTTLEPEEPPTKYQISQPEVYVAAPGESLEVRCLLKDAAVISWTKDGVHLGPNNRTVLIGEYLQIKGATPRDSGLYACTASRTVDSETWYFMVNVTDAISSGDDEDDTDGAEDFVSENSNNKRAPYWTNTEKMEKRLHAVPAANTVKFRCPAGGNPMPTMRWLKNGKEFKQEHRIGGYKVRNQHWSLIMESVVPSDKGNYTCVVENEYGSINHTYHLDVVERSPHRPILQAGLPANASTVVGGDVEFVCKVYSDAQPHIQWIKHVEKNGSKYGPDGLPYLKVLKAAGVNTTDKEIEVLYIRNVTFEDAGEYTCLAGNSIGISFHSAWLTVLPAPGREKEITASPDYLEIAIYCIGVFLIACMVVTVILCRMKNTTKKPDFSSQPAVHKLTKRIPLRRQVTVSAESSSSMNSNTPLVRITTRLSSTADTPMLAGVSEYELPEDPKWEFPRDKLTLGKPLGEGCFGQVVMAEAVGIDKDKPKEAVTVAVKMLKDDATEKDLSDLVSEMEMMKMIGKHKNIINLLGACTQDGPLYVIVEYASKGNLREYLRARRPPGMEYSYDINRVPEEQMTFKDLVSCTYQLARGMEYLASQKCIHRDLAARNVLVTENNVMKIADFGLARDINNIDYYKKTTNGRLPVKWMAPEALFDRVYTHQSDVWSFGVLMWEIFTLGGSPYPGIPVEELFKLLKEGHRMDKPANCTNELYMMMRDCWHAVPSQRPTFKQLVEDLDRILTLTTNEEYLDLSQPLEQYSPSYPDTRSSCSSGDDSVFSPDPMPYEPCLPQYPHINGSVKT

[18] = target: ACVRL1 (human) (UniProt P37023)
[19] = target: PIM2 (human) (UniProt Q9P1W9)
[20] = target: TGFBR1 (human) (UniProt P36897)
[21] = target: FGFR1 (human) (UniProt P11362)
[22] = target: MST4 (human) (UniProt Q9P289)
[23] = target: PKMYT1 (human) (UniProt Q99640)
[24] = target: RPS6KA5 KD2 (human) (UniProt O75582)
[25] = target: TYK2 JH2 pseudokinase (human) (UniProt P29597)
[26] = target: PIP4K2B (human) (UniProt P78356)
[27] = target: FLT4 (human) (UniProt P35916)
[28] = target: RPS6KA6 KD2 (human) (UniProt Q9UK32)
RPS6KA6 KD2 (human), sequence (Q9UK32 whole entry, looked up): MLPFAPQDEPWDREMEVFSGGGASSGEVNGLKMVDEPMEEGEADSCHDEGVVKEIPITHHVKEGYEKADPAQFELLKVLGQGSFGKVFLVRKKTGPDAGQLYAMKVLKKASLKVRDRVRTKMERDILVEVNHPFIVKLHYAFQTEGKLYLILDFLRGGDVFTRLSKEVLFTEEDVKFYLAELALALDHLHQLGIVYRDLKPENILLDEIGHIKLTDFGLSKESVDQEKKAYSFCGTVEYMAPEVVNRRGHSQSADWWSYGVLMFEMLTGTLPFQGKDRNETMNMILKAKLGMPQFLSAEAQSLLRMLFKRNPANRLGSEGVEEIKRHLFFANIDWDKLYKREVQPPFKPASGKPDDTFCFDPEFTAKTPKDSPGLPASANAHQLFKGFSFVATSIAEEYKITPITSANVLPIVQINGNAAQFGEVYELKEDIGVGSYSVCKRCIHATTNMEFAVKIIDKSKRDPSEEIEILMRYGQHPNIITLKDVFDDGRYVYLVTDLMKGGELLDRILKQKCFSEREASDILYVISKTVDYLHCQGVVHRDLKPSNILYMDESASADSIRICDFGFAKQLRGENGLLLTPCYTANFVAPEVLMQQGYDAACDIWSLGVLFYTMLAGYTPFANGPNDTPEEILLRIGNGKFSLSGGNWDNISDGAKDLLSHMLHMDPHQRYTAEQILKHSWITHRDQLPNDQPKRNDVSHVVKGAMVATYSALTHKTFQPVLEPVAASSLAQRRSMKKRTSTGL

[29] = target: MST1R (human) (UniProt Q04912)
[30] = target: JAK2 JH1 catalytic (human) (UniProt O60674)
[31] = target: RIOK2 (human) (UniProt Q9BVS4)
[32] = target: PLK4 (human) (UniProt O00444)
PLK4 (human), sequence (O00444 whole entry, looked up): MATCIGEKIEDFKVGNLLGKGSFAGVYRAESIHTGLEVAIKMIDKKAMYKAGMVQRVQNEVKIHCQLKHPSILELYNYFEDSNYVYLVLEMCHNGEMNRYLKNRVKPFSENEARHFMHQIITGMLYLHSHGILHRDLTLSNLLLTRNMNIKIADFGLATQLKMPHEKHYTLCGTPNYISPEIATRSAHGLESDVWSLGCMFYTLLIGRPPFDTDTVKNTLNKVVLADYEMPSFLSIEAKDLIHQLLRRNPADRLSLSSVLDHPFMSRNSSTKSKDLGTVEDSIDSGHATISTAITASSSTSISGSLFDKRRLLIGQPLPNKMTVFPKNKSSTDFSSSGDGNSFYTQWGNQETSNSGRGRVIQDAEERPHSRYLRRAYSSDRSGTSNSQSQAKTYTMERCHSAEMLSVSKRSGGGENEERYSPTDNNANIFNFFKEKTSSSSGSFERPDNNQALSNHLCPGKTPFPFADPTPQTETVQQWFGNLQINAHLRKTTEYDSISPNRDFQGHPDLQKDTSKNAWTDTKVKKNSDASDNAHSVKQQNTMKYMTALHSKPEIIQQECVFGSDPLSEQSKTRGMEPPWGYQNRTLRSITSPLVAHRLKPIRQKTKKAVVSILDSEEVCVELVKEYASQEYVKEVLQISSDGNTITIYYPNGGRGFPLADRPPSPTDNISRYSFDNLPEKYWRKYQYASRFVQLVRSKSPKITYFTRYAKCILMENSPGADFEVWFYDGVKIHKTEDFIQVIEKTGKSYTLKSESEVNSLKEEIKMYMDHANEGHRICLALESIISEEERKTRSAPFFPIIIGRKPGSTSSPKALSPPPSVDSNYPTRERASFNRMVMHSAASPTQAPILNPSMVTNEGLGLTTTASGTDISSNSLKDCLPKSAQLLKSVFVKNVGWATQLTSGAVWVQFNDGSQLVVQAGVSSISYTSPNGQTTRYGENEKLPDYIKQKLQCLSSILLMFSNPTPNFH

[33] = target: EPHA4 (human) (UniProt P54764)
[34] = target: AKT3 (human) (UniProt Q9Y243)
AKT3 (human), sequence (Q9Y243 whole entry, looked up): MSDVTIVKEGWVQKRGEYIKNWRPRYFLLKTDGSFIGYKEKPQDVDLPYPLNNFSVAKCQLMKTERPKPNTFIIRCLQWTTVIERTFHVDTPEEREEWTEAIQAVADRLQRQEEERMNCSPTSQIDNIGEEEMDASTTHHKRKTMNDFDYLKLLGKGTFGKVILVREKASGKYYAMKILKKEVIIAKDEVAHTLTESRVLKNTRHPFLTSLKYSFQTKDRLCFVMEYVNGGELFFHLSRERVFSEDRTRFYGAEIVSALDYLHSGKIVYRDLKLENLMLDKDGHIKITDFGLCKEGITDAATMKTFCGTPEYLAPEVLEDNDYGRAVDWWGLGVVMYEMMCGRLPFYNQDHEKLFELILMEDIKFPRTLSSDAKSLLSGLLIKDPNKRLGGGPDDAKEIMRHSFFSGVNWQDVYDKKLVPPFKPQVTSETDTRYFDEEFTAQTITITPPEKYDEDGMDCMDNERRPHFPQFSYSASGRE

[35] = target: FRK (human) (UniProt P42685)
[36] = target: STK17B (human) (UniProt O94768)
[37] = target: MAP4K3 (human) (UniProt Q8IVH8)
[38] = target: FLT1 (human) (UniProt P17948)
[39] = target: CDK7 (human) (UniProt P50613)
CDK7 (human), sequence (P50613 whole entry, looked up): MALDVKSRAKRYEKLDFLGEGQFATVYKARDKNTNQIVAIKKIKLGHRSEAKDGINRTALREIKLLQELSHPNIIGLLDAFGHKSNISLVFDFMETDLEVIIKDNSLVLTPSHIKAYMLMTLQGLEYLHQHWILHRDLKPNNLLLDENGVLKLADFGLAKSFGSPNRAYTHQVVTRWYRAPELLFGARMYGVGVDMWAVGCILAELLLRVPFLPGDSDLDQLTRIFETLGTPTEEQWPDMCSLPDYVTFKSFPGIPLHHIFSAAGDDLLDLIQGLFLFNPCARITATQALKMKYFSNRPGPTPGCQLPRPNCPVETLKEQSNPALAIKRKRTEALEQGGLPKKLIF

[40] = target: TGFBR2 (human) (UniProt P37173)

| SMILES | kinase still bound, per cent of control [1] [%] | kinase still bound, per cent of control [2] [%] | kinase still bound, per cent of control [3] [%] | kinase still bound, per cent of control [4] [%] | kinase still bound, per cent of control [5] [%] | kinase still bound, per cent of control [6] [%] | kinase still bound, per cent of control [7] [%] | kinase still bound, per cent of control [8] [%] | kinase still bound, per cent of control [9] [%] | kinase still bound, per cent of control [10] [%] | kinase still bound, per cent of control [11] [%] | kinase still bound, per cent of control [12] [%] | kinase still bound, per cent of control [13] [%] | kinase still bound, per cent of control [14] [%] | kinase still bound, per cent of control [15] [%] | kinase still bound, per cent of control [16] [%] | kinase still bound, per cent of control [17] [%] | kinase still bound, per cent of control [18] [%] | kinase still bound, per cent of control [19] [%] | kinase still bound, per cent of control [20] [%] | other results |
| --- | --- | --- | --- | --- | --- | --- | --- | --- | --- | --- | --- | --- | --- | --- | --- | --- | --- | --- | --- | --- | --- |
| O=C1Nc2ccc(I)cc2/C1=C/c1cc(Br)c(O)c(Br)c1 | 8.8 | 100 | 17 | 100 | 84 | 93 | 100 | 60 | 12 | 100 | 68 | 66 | 100 | 92 | 41 | 36 | 59 | 100 | 2.1 | 10 | kinase still bound, per cent of control [21]: 77%; kinase still bound, per cent of control [22]: 100%; kinase still bound, per cent of control [23]: 79%; kinase still bound, per cent of control [24]: 63%; kinase still bound, per cent of control [25]: 100%; kinase still bound, per cent of control [26]: 10%; kinase still bound, per cent of control [27]: 100%; kinase still bound, per cent of control [28]: 1.7%; kinase still bound, per cent of control [29]: 100%; kinase still bound, per cent of control [30]: 57%; kinase still bound, per cent of control [31]: 35%; kinase still bound, per cent of control [32]: 26%; kinase still bound, per cent of control [33]: 100%; kinase still bound, per cent of control [34]: 100%; kinase still bound, per cent of control [35]: 45%; kinase still bound, per cent of control [36]: 40%; kinase still bound, per cent of control [37]: 100%; kinase still bound, per cent of control [38]: 100%; kinase still bound, per cent of control [39]: 67%; kinase still bound, per cent of control [40]: 56% |
| Cn1c(=O)n(-c2ccc(C(C)(C)C#N)cc2)c2c3cc(-c4cnc5ccccc5c4)ccc3ncc21 | 100 | 100 | 100 | 100 | 100 | 100 | 100 | 100 | 100 | 100 | 11 | 100 | 100 | 100 | 100 | 22 | 100 | 100 | 100 | 100 | kinase still bound, per cent of control [21]: 100%; kinase still bound, per cent of control [22]: 100%; kinase still bound, per cent of control [23]: 100%; kinase still bound, per cent of control [24]: 100%; kinase still bound, per cent of control [25]: 100%; kinase still bound, per cent of control [26]: 100%; kinase still bound, per cent of control [27]: 100%; kinase still bound, per cent of control [28]: 100%; kinase still bound, per cent of control [29]: 100%; kinase still bound, per cent of control [30]: 20%; kinase still bound, per cent of control [31]: 100%; kinase still bound, per cent of control [32]: 100%; kinase still bound, per cent of control [33]: 100%; kinase still bound, per cent of control [34]: 100%; kinase still bound, per cent of control [35]: 100%; kinase still bound, per cent of control [36]: 100%; kinase still bound, per cent of control [37]: 100%; kinase still bound, per cent of control [38]: 100%; kinase still bound, per cent of control [39]: 100%; kinase still bound, per cent of control [40]: 100% |
| N#Cc1c(NC(=O)c2cccc3ccccc23)sc2c1CCCC2 | 96 | 94 | 90 | 100 | 100 | 100 | 65 | 0.95 | 84 | 81 | 100 | 86 | 84 | 96 | 89 | 84 | 100 | 100 | 69 | 100 | kinase still bound, per cent of control [21]: 99%; kinase still bound, per cent of control [22]: 79%; kinase still bound, per cent of control [23]: 77%; kinase still bound, per cent of control [24]: 95%; kinase still bound, per cent of control [25]: 100%; kinase still bound, per cent of control [26]: 100%; kinase still bound, per cent of control [27]: 91%; kinase still bound, per cent of control [28]: 77%; kinase still bound, per cent of control [29]: 95%; kinase still bound, per cent of control [30]: 100%; kinase still bound, per cent of control [31]: 91%; kinase still bound, per cent of control [32]: 82%; kinase still bound, per cent of control [33]: 100%; kinase still bound, per cent of control [34]: 82%; kinase still bound, per cent of control [35]: 58%; kinase still bound, per cent of control [36]: 100%; kinase still bound, per cent of control [37]: 79%; kinase still bound, per cent of control [38]: 87%; kinase still bound, per cent of control [39]: 82%; kinase still bound, per cent of control [40]: 100% |
